# From ChEMBL document CHEMBL5649167, “The SUV4-20 inhibitor A-196 verifies a role for epigenetics in genomic integrity” (Nat Chem Biol, 2017)
# Active and inactive are the calls of the source. The calls are words filed in the database; no cut-off is given here.
# Tests used:
# [1] = species on record: Homo sapiens; assay: Inhibition of human SKCa channel at 10 uM relative to control
# [2] = molecular target: Sodium-dependent noradrenaline transporter (Homo sapiens) (UniProt P23975); assay: Inhibition of human Norepinephrine transporter at 10 uM relative to control
# [3] = molecular target: T1, Muscarinic acetylcholine receptor M1 (Homo sapiens) (UniProt P11229); assay: Inhibition of human Muscarinic acetylcholine receptor M1 at 10 uM relative to control
# T1 sequence (whole entry): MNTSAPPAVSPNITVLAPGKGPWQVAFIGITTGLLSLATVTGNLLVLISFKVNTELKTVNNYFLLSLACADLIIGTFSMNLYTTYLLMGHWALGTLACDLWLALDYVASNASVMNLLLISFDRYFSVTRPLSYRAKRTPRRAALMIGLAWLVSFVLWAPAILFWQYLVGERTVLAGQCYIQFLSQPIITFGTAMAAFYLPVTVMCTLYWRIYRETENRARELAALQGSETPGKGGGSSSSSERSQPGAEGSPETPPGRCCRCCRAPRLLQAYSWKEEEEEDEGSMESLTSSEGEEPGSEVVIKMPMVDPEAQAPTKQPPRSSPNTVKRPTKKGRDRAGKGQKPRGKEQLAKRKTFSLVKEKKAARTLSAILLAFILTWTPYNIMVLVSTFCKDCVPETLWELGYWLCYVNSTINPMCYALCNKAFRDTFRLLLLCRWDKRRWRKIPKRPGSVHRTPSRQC
# [4] = molecular target: T2, 5-hydroxytryptamine receptor 1A (Homo sapiens) (UniProt P08908); assay: Inhibition of human 5-HT1A receptor expressed in stable […] cells at 10 uM relative to control; type: cell-based; conditions: HEK293T
# T2 sequence (whole entry): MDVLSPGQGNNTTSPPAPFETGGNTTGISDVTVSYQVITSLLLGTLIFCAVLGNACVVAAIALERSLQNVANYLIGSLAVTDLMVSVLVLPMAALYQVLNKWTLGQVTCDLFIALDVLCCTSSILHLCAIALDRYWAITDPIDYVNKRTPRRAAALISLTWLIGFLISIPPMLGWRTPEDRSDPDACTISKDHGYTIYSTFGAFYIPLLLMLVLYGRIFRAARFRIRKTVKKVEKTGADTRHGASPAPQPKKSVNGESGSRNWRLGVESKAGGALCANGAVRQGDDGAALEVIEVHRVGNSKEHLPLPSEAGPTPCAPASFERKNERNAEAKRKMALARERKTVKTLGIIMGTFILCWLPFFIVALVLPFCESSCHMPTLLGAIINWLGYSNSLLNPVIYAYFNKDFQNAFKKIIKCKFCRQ
# [5] = test system: B-cell; assay: Induction of DNA repair in mouse B cells assessed as inhibition in H4K20me3 level at 1 to 10 uM incubated for 96 hrs by western blot analysis; type: functional, cell-based; conditions: dose 1-10 µM
# [6] = molecular target: Vasopressin V1a receptor (Homo sapiens) (UniProt P37288); assay: Inhibition of human AVPR V1a at 10 uM relative to control
# [7] = molecular target: Alpha-1A adrenergic receptor (Homo sapiens) (UniProt P35348); assay: Inhibition of human Alpha-1A adrenergic receptor at 10 uM relative to control
# [8] = molecular target: D(2) dopamine receptor (Homo sapiens) (UniProt P14416); assay: Inhibition of human D(2) dopamine receptor expressed in stable human fibroblast cells at 10 uM relative to control; type: cell-based
# [9] = molecular target: Beta-2 adrenergic receptor (Homo sapiens) (UniProt P07550); assay: Inhibition of human Beta-2 adrenergic receptor expressed in human Flp-In-293 cells at 10 uM relative to control; type: cell-based
# [10] = molecular target: Adenosine receptor A1 (Homo sapiens) (UniProt P30542); assay: Inhibition of human Adenosine receptor A1 at 10 uM relative to control
# [11] = species on record: Homo sapiens; assay: Inhibition of human 5-HT3 at 10 uM relative to control
# [12] = test system: Embryonic stem cell; assay: Antiproliferative activity against mouse Embryonic stem cell assessed as reduction in H4K20me3 at 10 uM incubated for 3 days by immunofluorescence analysis; type: functional, cell-based; conditions: time 3.0 day
# [13] = molecular target: Beta-3 adrenergic receptor (Homo sapiens) (UniProt P13945); assay: Inhibition of human Beta-3 adrenergic receptor expressed in human Flp-In-293 cells at 10 uM relative to control; type: cell-based
# [14] = molecular target: T1, Muscarinic acetylcholine receptor M1 (Homo sapiens); assay: Inhibition of human Muscarinic acetylcholine receptor M1 expressed in stable Cricetulus griseus CHO cells at 10 uM relative to control; type: cell-based
# [15] = molecular target: D(1A) dopamine receptor (Homo sapiens) (UniProt P21728); assay: Inhibition of human D(1A) dopamine receptor expressed in HEK293T cells at 10 uM relative to control; type: cell-based
# [16] = molecular target: Nociceptin receptor (Homo sapiens) (UniProt P41146); assay: Inhibition of human Nociceptin receptor at 10 uM relative to control
# [17] = molecular target: D(2) dopamine receptor (Homo sapiens) (UniProt P14416); assay: Inhibition of human D(2) dopamine receptor at 10 uM relative to control
# [18] = molecular target: Mu-type opioid receptor (Homo sapiens) (UniProt P35372); assay: Inhibition of human Mu-type opioid receptor at 10 uM relative to control
# [19] = molecular target: 5-hydroxytryptamine receptor 7 (Homo sapiens) (UniProt P34969); assay: Inhibition of human 5-HT7 in stable HEK cells at 10 uM relative to control; type: cell-based
# [20] = molecular target: Beta-1 adrenergic receptor (Homo sapiens) (UniProt P08588); assay: Inhibition of human Beta-1 adrenergic receptor expressed in Cricetulus griseus Flp-In-CHO cells at 10 uM relative to control; type: cell-based
# [21] = molecular target: 5-hydroxytryptamine receptor 6 (Homo sapiens) (UniProt P50406); assay: Inhibition of human 5-HT6 expressed in stable HEK cells at 10 uM relative to control; type: cell-based
# [22] = molecular target: Neuropeptide Y receptor type 2 (Homo sapiens) (UniProt P49146); assay: Inhibition of human NPY-Y2 receptor at 10 uM relative to control
# [23] = molecular target: 5-hydroxytryptamine receptor 2B (Homo sapiens) (UniProt P41595); assay: Inhibition of human 5-hydroxytryptamine receptor 2B at 10 uM relative to control
# [24] = molecular target: Calcium/calmodulin-dependent protein kinase type II subunit alpha (Homo sapiens) (UniProt Q9UQM7); assay: Inhibition of human CaMK2alpha at 10 uM relative to control
# [25] = molecular target: Hepatocyte growth factor receptor (Homo sapiens) (UniProt P08581); assay: Inhibition of human c-Met at 10 uM relative to control
# [26] = test system: U2OS; assay: Antiproliferative activity against human U2OS cells assessed as inhibition in H4K20me2 expression level 21 doublings by Western blot analysis; type: functional, cell-based
# [27] = molecular target: D(1B) dopamine receptor (Homo sapiens) (UniProt P21918); assay: Inhibition of human D(5) dopamine receptor expressed in HEK293T cells at 10 uM relative to control; type: cell-based
# [28] = molecular target: Histone-lysine N-methyltransferase KMT5B (Homo sapiens) (UniProt Q4FZB7); assay: Inhibition of recombinant human 6His-(Tev)-G-SUV420H1 (69 to 335 residues) using Biotin-tagged H4K20me1 and [3H-SAM] as substrate at 1 uM incubated for 2 hrs by scintillation proximity assay
# [29] = molecular target: Proto-oncogene tyrosine-protein kinase Src (Homo sapiens) (UniProt P12931); assay: Inhibition of human Src at 10 uM relative to control
# Sequence of D(2) dopamine receptor (Homo sapiens) (P14416 whole entry): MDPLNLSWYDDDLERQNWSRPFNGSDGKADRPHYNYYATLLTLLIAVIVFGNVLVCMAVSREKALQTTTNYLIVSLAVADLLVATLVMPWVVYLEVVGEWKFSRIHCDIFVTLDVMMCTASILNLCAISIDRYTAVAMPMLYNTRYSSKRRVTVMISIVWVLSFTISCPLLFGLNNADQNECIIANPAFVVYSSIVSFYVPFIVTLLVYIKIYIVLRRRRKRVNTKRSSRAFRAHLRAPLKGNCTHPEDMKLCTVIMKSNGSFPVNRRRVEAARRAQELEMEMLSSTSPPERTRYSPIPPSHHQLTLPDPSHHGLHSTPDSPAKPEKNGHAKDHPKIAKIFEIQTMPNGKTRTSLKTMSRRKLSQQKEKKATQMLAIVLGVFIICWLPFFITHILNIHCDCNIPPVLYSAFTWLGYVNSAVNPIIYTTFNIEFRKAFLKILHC
# Sequence of Nociceptin receptor (Homo sapiens) (P41146 whole entry): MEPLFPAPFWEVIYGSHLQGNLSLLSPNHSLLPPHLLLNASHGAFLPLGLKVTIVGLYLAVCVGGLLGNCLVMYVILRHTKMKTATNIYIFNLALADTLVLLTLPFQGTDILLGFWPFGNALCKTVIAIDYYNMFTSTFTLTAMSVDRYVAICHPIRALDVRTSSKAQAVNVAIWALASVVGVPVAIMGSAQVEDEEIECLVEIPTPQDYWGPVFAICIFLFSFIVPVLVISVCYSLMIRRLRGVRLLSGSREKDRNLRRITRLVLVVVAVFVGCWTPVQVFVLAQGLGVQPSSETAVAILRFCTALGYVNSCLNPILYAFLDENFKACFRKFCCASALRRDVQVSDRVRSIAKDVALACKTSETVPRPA
# Sequence of Vasopressin V1a receptor (Homo sapiens) (P37288 whole entry, looked up): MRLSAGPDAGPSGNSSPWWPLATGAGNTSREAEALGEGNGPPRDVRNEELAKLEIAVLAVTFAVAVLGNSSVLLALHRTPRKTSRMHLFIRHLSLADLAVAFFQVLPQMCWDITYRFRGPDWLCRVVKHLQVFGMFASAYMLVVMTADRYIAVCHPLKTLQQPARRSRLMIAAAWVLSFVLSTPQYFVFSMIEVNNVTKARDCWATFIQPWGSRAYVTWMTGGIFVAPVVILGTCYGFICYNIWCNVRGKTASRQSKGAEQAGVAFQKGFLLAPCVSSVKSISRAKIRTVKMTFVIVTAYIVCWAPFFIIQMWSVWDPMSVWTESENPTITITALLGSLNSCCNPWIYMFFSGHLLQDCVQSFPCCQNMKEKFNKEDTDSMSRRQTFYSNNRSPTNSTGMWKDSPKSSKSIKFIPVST
# Sequence of 5-hydroxytryptamine receptor 6 (Homo sapiens) (P50406 whole entry): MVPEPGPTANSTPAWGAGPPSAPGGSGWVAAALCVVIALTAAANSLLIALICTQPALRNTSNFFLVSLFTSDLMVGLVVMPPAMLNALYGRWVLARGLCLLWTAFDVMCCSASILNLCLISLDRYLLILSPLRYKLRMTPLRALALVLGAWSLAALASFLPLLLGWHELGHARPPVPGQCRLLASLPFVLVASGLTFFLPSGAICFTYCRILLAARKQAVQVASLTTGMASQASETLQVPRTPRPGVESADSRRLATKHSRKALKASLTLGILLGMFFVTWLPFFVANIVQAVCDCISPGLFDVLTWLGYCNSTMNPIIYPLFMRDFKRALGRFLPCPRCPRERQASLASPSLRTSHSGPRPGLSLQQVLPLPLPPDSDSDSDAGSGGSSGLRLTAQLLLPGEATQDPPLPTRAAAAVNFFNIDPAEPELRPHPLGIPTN
# Sequence of Beta-2 adrenergic receptor (Homo sapiens) (P07550 whole entry, looked up): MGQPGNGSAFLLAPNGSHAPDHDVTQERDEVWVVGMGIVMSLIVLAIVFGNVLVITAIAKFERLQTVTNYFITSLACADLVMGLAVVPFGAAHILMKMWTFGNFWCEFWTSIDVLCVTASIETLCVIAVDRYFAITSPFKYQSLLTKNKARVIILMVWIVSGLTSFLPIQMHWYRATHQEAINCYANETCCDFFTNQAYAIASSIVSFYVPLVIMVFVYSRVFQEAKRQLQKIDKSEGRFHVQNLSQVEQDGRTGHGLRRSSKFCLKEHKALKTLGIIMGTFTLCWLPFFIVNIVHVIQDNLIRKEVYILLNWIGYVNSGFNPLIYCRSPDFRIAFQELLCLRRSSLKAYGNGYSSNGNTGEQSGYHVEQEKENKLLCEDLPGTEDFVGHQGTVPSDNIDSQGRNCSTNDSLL
# Sequence of 5-hydroxytryptamine receptor 2B (Homo sapiens) (P41595 whole entry): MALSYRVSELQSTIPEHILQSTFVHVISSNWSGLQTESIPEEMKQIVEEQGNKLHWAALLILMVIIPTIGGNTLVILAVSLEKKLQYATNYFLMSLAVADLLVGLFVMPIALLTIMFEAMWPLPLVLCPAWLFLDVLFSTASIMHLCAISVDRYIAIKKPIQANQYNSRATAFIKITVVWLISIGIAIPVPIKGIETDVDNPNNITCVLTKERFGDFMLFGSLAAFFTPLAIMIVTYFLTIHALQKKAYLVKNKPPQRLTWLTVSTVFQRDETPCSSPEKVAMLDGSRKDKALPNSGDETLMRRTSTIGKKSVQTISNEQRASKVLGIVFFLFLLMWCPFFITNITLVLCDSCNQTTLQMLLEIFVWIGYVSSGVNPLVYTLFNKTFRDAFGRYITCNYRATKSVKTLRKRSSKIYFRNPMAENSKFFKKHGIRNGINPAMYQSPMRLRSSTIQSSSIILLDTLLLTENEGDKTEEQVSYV
# Sequence of Alpha-1A adrenergic receptor (Homo sapiens) (P35348 whole entry): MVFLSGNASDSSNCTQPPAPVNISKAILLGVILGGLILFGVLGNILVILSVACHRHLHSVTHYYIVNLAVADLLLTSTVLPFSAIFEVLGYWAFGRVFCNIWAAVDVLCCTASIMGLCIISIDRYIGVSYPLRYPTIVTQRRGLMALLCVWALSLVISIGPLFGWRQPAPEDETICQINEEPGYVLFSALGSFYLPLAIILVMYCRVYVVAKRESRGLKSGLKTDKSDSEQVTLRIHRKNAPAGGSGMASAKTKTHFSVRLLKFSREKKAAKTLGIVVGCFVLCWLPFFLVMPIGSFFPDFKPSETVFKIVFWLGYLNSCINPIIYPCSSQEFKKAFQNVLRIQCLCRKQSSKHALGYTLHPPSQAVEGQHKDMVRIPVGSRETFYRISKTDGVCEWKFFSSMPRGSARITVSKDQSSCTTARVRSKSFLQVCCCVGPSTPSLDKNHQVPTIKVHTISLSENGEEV
# Sequence of D(1A) dopamine receptor (Homo sapiens) (P21728 whole entry): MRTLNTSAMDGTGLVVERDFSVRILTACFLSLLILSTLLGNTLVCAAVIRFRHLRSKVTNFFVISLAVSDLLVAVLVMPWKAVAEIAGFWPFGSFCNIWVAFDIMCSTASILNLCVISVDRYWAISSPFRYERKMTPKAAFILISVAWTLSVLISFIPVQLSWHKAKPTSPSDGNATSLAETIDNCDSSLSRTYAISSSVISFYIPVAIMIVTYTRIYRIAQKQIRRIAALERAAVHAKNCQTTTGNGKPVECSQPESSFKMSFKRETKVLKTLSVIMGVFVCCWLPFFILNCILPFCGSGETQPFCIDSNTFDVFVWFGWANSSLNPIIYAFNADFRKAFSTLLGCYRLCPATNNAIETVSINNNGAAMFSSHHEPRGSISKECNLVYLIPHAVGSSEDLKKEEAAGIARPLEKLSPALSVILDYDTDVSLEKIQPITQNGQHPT
# Sequence of Beta-1 adrenergic receptor (Homo sapiens) (P08588 whole entry, looked up): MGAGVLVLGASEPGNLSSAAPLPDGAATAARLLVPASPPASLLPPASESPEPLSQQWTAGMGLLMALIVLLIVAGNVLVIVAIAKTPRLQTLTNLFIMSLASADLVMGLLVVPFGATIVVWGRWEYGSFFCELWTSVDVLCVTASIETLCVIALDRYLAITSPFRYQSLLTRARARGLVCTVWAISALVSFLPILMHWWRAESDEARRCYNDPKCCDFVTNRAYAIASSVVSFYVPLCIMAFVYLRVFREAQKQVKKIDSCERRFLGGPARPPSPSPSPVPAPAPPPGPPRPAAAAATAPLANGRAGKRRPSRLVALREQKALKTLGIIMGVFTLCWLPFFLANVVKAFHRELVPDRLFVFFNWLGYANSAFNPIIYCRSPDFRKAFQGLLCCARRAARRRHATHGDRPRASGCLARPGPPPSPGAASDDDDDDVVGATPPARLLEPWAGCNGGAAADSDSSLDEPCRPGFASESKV
# Sequence of Mu-type opioid receptor (Homo sapiens) (P35372 whole entry): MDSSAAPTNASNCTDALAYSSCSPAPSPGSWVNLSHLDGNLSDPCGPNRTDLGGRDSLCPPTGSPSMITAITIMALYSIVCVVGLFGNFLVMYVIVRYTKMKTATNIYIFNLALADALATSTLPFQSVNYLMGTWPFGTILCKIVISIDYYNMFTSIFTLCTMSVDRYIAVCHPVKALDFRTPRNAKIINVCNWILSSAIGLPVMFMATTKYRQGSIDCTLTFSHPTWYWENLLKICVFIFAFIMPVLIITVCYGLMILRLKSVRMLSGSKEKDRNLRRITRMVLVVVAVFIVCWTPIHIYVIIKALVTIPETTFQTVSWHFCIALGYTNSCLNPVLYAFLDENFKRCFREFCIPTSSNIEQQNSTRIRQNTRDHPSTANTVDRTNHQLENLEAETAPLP
# Sequence of Beta-3 adrenergic receptor (Homo sapiens) (P13945 whole entry, looked up): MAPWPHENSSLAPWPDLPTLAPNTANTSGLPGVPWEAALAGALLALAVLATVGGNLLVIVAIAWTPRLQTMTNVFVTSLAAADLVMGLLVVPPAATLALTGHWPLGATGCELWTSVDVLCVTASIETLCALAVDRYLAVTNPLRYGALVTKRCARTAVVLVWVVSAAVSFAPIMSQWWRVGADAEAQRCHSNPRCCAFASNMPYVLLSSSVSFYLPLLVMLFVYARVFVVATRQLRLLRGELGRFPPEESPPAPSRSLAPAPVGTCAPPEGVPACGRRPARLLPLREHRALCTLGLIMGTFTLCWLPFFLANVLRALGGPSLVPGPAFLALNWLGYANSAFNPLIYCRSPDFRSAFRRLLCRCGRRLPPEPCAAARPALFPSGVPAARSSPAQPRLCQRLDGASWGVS
inhibition [1] [%],inhibition [3] [%],inhibition [4] [%],inhibition [6] [%],inhibition [7] [%],inhibition [8] [%],inhibition [9] [%],inhibition [10] [%],inhibition [11] [%],inhibition [13] [%],inhibition [14] [%],inhibition [15] [%],inhibition [16] [%],inhibition [17] [%],inhibition [18] [%],inhibition [20] [%],inhibition [21] [%],inhibition [22] [%],Structure (SMILES),inhibition [5],Activity [12],also measured
-5,10,12,96,-9,39,17,55,6,-8,-8,-1,0,13,23,-4,-1,-5,O=C(c1nnc(NC2CCCC2)c2cc(Cl)c(Cl)cc12)N1CCC(O)CC1,inactive,inactive,inhibition [2]: 1%; inhibition [19]: 19%; inhibition [23]: 8%
3,21,6,4,-3,-6,20,98,4,-9,4,2,13,3,31,32,-2,-8,Clc1cc2c(NC3CCCC3)nnc(-c3ccncc3)c2cc1Cl,Active,Active,inhibition [24]: -5%; inhibition [25]: -4%; Activity [26]: Active; inhibition [27]: -4%; inhibition [28]: Active; inhibition [29]: -1%; inhibition [23]: 27%
